In one data set the test system is Haemonchus contortus. Nature of the data set: Screening method to test activity against Haemonchus contortus L1 larvae (Method A). It counts as cell-based. Particulars: 96 h, read-out: motility inhibition. How it is done: Screening method to test activity of compounds against Haemonchus contortus.
Twenty L1 Haemonchus contortus larvae were added to wells of a microtitre plate containing a nutrient medium and the test compound in DMSO. An analysis was conducted at 4 days to determine the extent of development of the larvae. Larvae exposed to DMSO alone served as controls. Compounds 3, 6, 12, 15, 43, 44, 45, 46, 47, 48, 49, & 50 gave at least 90% motility inhibition at a test concentration of less than or equal to <1 μM when assessed at the 4 day time point.

Data set [1] is described as follows: Permeability in the CACO-2/TC7 in vitro model (Method C). Particulars: human, apical to basolateral, pH gradient 6.5/7.4 and BSA gradient 0.5%/5%, 20 μM compound. The data set is classed as in vitro ADME. An excerpt:
Permeability of Compounds.
Permeability of a compound across the epithelium cells along the gastrointestinal tract is an important limiting factor for the oral absorption and systemic availability of the compound. An in vitro model utilizing Caco-2/TC7 cells is employed to assess the permeability characteristics of new chemical entities (NCEs). For orally administered compounds, absorption depends on the intrinsic permeability across the intestinal epithelium and whether the active agent is a substrate or inhibitor of uptake or efflux transporters.
The permeability studies were performed under standard conditions in the apical to basolateral (A→B) direction with a pH gradient and a BSA gradient (standard apical medium (0.5% BSA at pH 6.5)/standard basal medium (5% BSA at pH 7.4)); conditions that most closely reflect the conditions in the in vivo situation. Samples were deproteinized by the addition of 400 μl acetonitrile to 200 μl sample, followed by a 20-minute centrifugation at 1730 g. […] Analytical conditions: Supernatants recovered following centrifugation were analysed by LC/MS/MS using a reverse phase column and the mobile phases delivered at 0.3 ml/minute in a gradient: water (A) and acetonitrile (B) (each with 0.1% formic acid). […]
(Caco-2 monolayers are a common model of the intestinal barrier.)

The subject of data set [2] is ivermectin-resistant strains of Haemonchus contortus. Kind of data set: Efficacy against ivermectin-resistant endoparasites in sheep (FIG. 2). The following applies: 0.2 mg/kg orally. It counts as in vivo.
In data set [3] the test system is ivermectin-resistant strains of Ostertagia circumcincta. Described as above. The data set is classed as in vivo. The following applies: 0.2 mg/kg orally.
Data set [4] deals with ivermectin-resistant strains of Trichostrongylus columbriformis. Described as above. The data set is classed as in vivo. The following applies: 0.2 mg/kg orally.

For orientation: inhibition means the percentage by which the read-out fell short of the control. With `N#Cc1ccc(N2CC(OCC(=O)N3CCN(c4nc5cc(C(F)(F)F)ccc5s4)CC3)C2)cc1C(F)(F)F` [Compound 6, 4-[3-[2-oxo-2-[4-[5-(trifluoromethyl)-1,3-benzothiazol-2-yl]piperazin-1-yl]ethoxy]azetidin-1-yl]-2-(trifluoromethyl)benzonitrile], the inhibition at 1 µM in the data set on Haemonchus contortus is no less than 90%.
What is called Papp A→B is how fast a substance crosses the layer from the apical side. A higher Papp A→B goes with fast passage. With `N#Cc1ccc(N2CCC(OCC(=O)N3CCN(c4nc5cc(C(F)(F)F)ccc5s4)CC3)CC2)cc1C(F)(F)F` [Compound 3, 4-[4-[2-oxo-2-[4-[5-(trifluoromethyl)-1,3-benzothiazol-2-yl]piperazin-1-yl]ethoxy]-1-piperidyl]-2-(trifluoromethyl)benzonitrile], the inhibition at 1 µM with Haemonchus contortus was no less than 90%. This compound also returned a Papp A→B at 20 μM in data set [1] of 2.8 ×10⁻⁶ cm/s.
Take ivermectin: the efficacy entry was “almost completely inactive” in data set [2], “less than 30%” in data set [3] and “less than 60%” in data set [4].

For the origin of these results see US10463661B2, “Anthelmintic compounds” (MERIAL INC., priority 2014, dated 2019).
